Results: paper PMC7159882, “Polyunsaturated fatty acid analogues differentially affect cardiac NaV, CaV, and KV channels through unique mechanisms” (eLife, 2020)
“And” between values parts separate entries of the source, which are not always exact repeats. Equal entries are not always repeated.

Assays:
Herg channels = test system: Herg channels; parameters: method as in B.H. Bentzen and H. Duff, unpublished data; conditions: up to 10 μM; heterologous systems; ref B.H. Bentzen and H. Duff, unpublished data; cited from earlier work
Cav1.2/β3/α2δ = target: T1, Cav1.2/β3/α2δ (Homo sapiens, UniProt Q13936); experiment: Two-electrode voltage clamp of Cav1.2/β3/α2δ expressed in Xenopus oocytes (Ba2+ as charge carrier); format: cell-based; conditions: for ICa I/I0: relative current at 0 mV
T1 construct: expressed in transfected cells; host or cells: Xenopus laevis oocytes (cRNA injection, Cav1.2:β3:α2δ 2:1:1 by weight)
Method: (§1) Molecular Biology cRNA encoding Kv7.1 (UniProt: P51787), KCNE1 (UniProt: P15382.1), Nav1.5 (UniProt: Q14524.1), Nav β1 (UniProt: […]), Nav β3 (UniProt: […]), Cav1.2 (GenBank: CAA84346), Cav β3 (Uniprot: P54286), Cav β2 (Uniprot: P54288), and Cav α2δ (Uniprot: P13806) were transcribed using the mMessage mMachine T7 kit (Ambion). 50 ng of cRNA was injected into defolliculated Xenopus laevis oocytes (Ecocyte, Austin, TX): For Kv7.1/KCNE1 channel expression, we injected a 3:1, weight:weight (Kv7.1:KCNE1) cRNA ratio. For Nav1.5 channel expression, we injected a 2:1, weight:weight (Nav1.5:β1) cRNA ratio. For Cav1.2 channel expression, we injected a 2:1:1, weight:weight (Cav1.2:β3:α2δ) cRNA ratio. The exact stoichiometry for channel macromolecular complexes, including α -subunits and auxiliary subunits is not clear for many ion channels. For example, there have been multiple reported stoichiometries for Kv7.1:KCNE1 determined in heterologous expression systems with some groups reporting flexible stoichiometry of 4 Kv7.1: 1–4 KCNE1 and others reporting a fixed stoichiometry of 4 Kv7.1: 2 KCNE1 ([Murray et al., 2016]; [Nakajo et al., 2010]). The ratios of cRNA of α- and auxiliary subunits that we injected in Xenopus laevis oocytes are such that all α-subunits are assumed to be in complex with auxiliary subunits. This allows a more homogenous population of ion channels with auxiliary subunits. One caveat to expressing ion channels as macromolecular complexes is that there are many other auxiliary subunits that could associate with the channel α -subunit that are present in cardiomyocytes and have the potential to alter PUFA-induced effects, but that are not being co-expressed in our experiments. In this work, we are co-expressing some of the auxiliary subunits that have been primarily reported to associate with their respective α -subunits in cardiomyocytes. Following cRNA injection, cells were incubated for 72–96 hr in standard ND96 solution (96 mM NaCl, 2 mM KCl, 1 mM MgCl2, 1.8 mM CaCl2, 5 mM HEPES; pH = 7.5) containing 1 mM pyruvate at 16°C prior to electrophysiological recordings.
(§2) Xenopus laevis oocytes were recorded in the two-electrode voltage clamp (TEVC) configuration. Recording pipettes were filled with 3 M KCl. The recording chamber was filled with ND96 (96 mM NaCl, 2 mM KCl, 1 mM MgCl2, 1.8 mM CaCl2, 5 mM HEPES; pH 7.5). For Cav1.2/β3/α2δ channel recordings, Xenopus oocytes were injected with 50 nl of 100 mM EGTA and incubated at 10°C for 30 min prior to electrophysiological recordings in order to sequester cytosolic calcium. In addition, Cav1.2/β3/α2δ channel recordings were done in Ca^2+-free solutions, using Ba^2+ as the charge carrier, to prevent calcium-dependent inactivation of Cav1.2/β3/α2δ channels. Calcium-dependent inactivation was not studied in this work, due to the presence of large calcium-activated chloride currents present in Xenopus laevis oocytes. PUFAs were obtained from Cayman Chemical (Ann Arbor, MI.) or synthesized in house (Linköping, Sweden) through methods previously described ([Bohannon et al., 2020]) and kept at −20 °C as 100 mM stock solutions in ethanol. Serial dilutions of the different PUFAs were prepared from stocks to make 0.2 μM, 0.7 μM, 2 μM, 7 μM, and 20 μM concentrations in ND96 solutions (pH = 7.5). PUFAs were perfused into the recording chamber using the Rainin Dynamax Peristaltic Pump (Model RP-1) (Rainin Instrument Co., Oakland, CA. USA).
(§3) Electrophysiological recordings were obtained using Clampex 10.3 software (Axon, pClamp, Molecular Devices). To measure Kv7.1/KCNE1 currents we apply PUFAs as the membrane potential is stepped every 30 s from −80 mV to 0 mV for 5 s before stepping to −40 mV and back to −80 mV to ensure that the PUFA effects on the current at 0 mV reached steady state. A voltage-step protocol was used to measure the current vs. voltage (I-V) relationship before PUFA application and after the PUFA effects had reached steady state for each concentration of PUFA. […]

Nav1.5/β1 = target: T2, Nav1.5/β1 (Homo sapiens, UniProt Q14524); experiment: Two-electrode voltage clamp of Nav1.5/β1 expressed in Xenopus oocytes; format: cell-based; conditions: for INa I/I0: relative current at 0 mV
T2 construct: Nav1.5 (UniProt: Q14524.1); expressed in transfected cells; host or cells: Xenopus laevis oocytes (cRNA injection, Nav1.5:β1 2:1 by weight)
T2 sequence (Q14524 whole entry): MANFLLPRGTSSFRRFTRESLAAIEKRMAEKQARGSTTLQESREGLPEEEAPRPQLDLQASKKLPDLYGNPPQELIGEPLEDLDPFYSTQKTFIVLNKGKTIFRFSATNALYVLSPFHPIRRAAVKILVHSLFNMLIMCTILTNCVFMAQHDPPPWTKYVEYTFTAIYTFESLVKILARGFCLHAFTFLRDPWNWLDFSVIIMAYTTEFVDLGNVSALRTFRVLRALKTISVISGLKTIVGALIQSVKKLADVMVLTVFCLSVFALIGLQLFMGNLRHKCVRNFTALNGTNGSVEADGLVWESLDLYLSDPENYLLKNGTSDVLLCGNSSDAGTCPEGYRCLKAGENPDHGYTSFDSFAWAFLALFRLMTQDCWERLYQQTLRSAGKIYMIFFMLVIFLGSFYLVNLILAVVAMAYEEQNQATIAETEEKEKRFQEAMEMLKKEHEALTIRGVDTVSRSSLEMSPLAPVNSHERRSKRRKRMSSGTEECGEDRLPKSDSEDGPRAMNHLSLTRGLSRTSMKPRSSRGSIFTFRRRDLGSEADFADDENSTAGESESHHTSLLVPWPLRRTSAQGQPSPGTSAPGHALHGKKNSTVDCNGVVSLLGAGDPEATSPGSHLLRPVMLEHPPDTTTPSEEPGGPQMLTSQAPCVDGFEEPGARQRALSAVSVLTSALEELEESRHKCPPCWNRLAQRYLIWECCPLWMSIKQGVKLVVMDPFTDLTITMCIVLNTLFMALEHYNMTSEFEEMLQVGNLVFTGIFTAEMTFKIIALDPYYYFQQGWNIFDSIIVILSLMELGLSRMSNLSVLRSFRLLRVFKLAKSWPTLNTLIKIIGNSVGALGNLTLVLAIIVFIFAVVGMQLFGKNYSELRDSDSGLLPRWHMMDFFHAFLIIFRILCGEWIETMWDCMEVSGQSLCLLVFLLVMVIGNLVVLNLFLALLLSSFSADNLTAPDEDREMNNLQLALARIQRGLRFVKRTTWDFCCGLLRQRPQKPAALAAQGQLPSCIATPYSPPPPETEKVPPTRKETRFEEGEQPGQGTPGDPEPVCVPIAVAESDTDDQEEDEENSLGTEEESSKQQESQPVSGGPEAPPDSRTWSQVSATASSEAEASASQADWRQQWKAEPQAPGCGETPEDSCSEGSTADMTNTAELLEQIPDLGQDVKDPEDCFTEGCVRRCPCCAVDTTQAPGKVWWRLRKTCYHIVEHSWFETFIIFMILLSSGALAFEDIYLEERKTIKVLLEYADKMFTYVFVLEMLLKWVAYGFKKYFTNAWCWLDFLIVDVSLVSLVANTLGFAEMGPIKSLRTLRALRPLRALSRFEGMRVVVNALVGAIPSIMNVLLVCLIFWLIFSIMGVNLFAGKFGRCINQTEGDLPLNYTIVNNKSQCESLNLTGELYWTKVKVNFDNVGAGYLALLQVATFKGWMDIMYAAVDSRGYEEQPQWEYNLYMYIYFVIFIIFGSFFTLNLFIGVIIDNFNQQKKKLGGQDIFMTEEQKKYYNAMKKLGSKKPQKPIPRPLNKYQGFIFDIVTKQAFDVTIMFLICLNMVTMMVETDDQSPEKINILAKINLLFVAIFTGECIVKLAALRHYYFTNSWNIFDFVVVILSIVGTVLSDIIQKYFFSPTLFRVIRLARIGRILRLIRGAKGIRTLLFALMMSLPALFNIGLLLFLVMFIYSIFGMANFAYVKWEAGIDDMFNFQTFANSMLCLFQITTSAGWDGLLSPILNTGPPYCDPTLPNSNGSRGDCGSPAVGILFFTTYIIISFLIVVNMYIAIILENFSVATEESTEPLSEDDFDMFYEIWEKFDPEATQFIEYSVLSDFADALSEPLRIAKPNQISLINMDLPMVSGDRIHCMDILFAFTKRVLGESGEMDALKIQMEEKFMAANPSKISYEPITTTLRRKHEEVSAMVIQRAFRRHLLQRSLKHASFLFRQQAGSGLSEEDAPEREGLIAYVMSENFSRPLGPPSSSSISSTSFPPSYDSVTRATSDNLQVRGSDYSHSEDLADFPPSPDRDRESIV
T2 sequence (Q07699 19-218 partner): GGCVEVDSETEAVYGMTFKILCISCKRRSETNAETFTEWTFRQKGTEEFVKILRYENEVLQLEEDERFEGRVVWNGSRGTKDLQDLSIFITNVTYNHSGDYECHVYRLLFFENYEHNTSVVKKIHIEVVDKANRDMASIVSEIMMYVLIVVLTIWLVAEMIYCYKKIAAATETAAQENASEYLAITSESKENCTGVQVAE
Method: as §1, §2, §3

Cav1.2/β2/α2δ = target: T3, Cav1.2/β2/α2δ (Homo sapiens, UniProt Q13936); experiment: Two-electrode voltage clamp of Cav1.2/β2/α2δ expressed in Xenopus oocytes; format: cell-based; conditions: co-expression with β2 subunit instead of β3
T3 construct: expressed in transfected cells; host or cells: Xenopus laevis oocytes (cRNA injection; no ratio printed for the β2 combination)
Method: Molecular Biology cRNA encoding Kv7.1 (UniProt: P51787), KCNE1 (UniProt: P15382.1), Nav1.5 (UniProt: Q14524.1), Nav β1 (UniProt: […]), Nav β3 (UniProt: […]), Cav1.2 (GenBank: CAA84346), Cav β3 (Uniprot: P54286), Cav β2 (Uniprot: P54288), and Cav α2δ (Uniprot: P13806) were transcribed using the mMessage mMachine T7 kit (Ambion). 50 ng of cRNA was injected into defolliculated Xenopus laevis oocytes (Ecocyte, Austin, TX): For Kv7.1/KCNE1 channel expression, we injected a 3:1, weight:weight (Kv7.1:KCNE1) cRNA ratio. For Nav1.5 channel expression, we injected a 2:1, weight:weight (Nav1.5:β1) cRNA ratio. For Cav1.2 channel expression, we injected a 2:1:1, weight:weight (Cav1.2:β3:α2δ) cRNA ratio. The exact stoichiometry for channel macromolecular complexes, including α -subunits and auxiliary subunits is not clear for many ion channels. For example, there have been multiple reported stoichiometries for Kv7.1:KCNE1 determined in heterologous expression systems with some groups reporting flexible stoichiometry of 4 Kv7.1: 1–4 KCNE1 and others reporting a fixed stoichiometry of 4 Kv7.1: 2 KCNE1 ([Murray et al., 2016]; [Nakajo et al., 2010]). […]
Xenopus laevis oocytes were recorded in the two-electrode voltage clamp (TEVC) configuration. […]

Structure (SMILES)	Gmax/Gmax0 (Cav1.2/β3/α2δ; 0.2 μM)	ΔV0.5 (voltage dependence of inactivation) (Cav1.2/β3/α2δ; 0.2 μM)	ICa I/I0 (Cav1.2/β3/α2δ; 0.2 μM)	Gmax/Gmax0 (Cav1.2/β3/α2δ; 0.7 μM)	ΔV0.5 (voltage dependence of inactivation) (Cav1.2/β3/α2δ; 0.7 μM)	ICa I/I0 (Cav1.2/β3/α2δ; 0.7 μM)	Gmax/Gmax0 (Cav1.2/β3/α2δ; 2 μM)	ΔV0.5 (voltage dependence of inactivation) (Cav1.2/β3/α2δ; 2 μM)	ICa I/I0 (Cav1.2/β3/α2δ; 2 μM)	Gmax/Gmax0 (Cav1.2/β3/α2δ; 7 μM)	ΔV0.5 (voltage dependence of inactivation) (Cav1.2/β3/α2δ; 7 μM)	Gmax/Gmax0 (Cav1.2/β3/α2δ; 20 μM)	ΔV0.5 (voltage dependence of inactivation) (Cav1.2/β3/α2δ; 20 μM)	ICa I/I0 (Cav1.2/β3/α2δ; 20 μM)	Gmax/Gmax0 (Nav1.5/β1; 0.2 μM)	ΔV0.5 (voltage dependence of inactivation) (Nav1.5/β1; 0.2 μM)	INa I/I0 (Nav1.5/β1; 0.2 μM)	Gmax/Gmax0 (Nav1.5/β1; 0.7 μM)	ΔV0.5 (voltage dependence of inactivation) (Nav1.5/β1; 0.7 μM)	INa I/I0 (Nav1.5/β1; 0.7 μM)	further results
CC/C=C\C/C=C\C/C=C\C/C=C\C/C=C\C/C=C\CCC(=O)NCC(=O)O [DHA-glycine, docosahexaenoyl glycine]	1.0 ± 0.1	6.1 ± 3.5 mV	0.9 ± 0.1	1.1 ± 0.1	6.4 ± 4.3 mV	1.0 ± 0.1	1.1 ± 0.1	6.1 ± 4.2 mV	0.9 ± 0.1	1.0 ± 0.1	7.6 ± 3.1 mV	1.0 ± 0.1	5.2 ± 4.4 mV	0.9 ± 0.1	1.0 ± 0.02	0.3 ± 0.1 mV	1.0 ± 0.02	1.0 ± 0.03	-0.2 ± 0.6 mV	1.0 ± 0.04	effects on currents through Herg channels (Herg channels): neither N-AT nor DHA-glycine up to 10 μM had any significant effects; Gmax/Gmax0 (Nav1.5/β1; 2 μM): 1.0 ± 0.04; ΔV0.5 (voltage dependence of inactivation) (Nav1.5/β1; 2 μM): -0.3 ± 0.5 mV; INa I/I0 (Nav1.5/β1; 2 μM): 1.1 ± 0.05; Gmax/Gmax0 (Nav1.5/β1; 7 μM): 1.0 ± 0.04; ΔV0.5 (voltage dependence of inactivation) (Nav1.5/β1; 7 μM): −2.4 ± 0.6 mV and -2.4 ± 0.7 mV; Gmax/Gmax0 (Nav1.5/β1; 20 μM): 0.5 ± 0.1; ΔV0.5 (voltage dependence of inactivation) (Nav1.5/β1; 20 μM): -11.5 ± 1.7 mV; INa I/I0 (Nav1.5/β1; 20 μM): 0.7 ± 0.1
CCCCC/C=C\C/C=C\CCCCCCCC(=O)NCCS(=O)(=O)O [Lin-taurine, Linoleoyl taurine]	1.0 ± 0.02	0.6 ± 0.5 mV	1.0 ± 0.02	0.9 ± 0.02	0.9 ± 0.9 mV	0.9 ± 0.1	0.7 ± 0.05	-0.3 ± 1.8 mV	0.7 ± 0.1	0.6 ± 0.05	−1.9 ± 2.5 mV	0.5 ± 0.04	-1.2 ± 4.4 mV	0.5 ± 0.1	1.0 ± 0.01	-0.3 ± 0.1 mV	1.0 ± 0.01	1.0 ± 0.01	-2.2 ± 0.7 mV	1.0 ± 0.05	response of Cav1.2/β2/α2δ compared with Cav1.2/β3/α2δ (Cav1.2/β2/α2δ): no differences between Cav1.2/β3/α2δ and Cav1.2/β2/α2δ; ΔV0.5 (voltage dependence of inactivation) (Cav1.2/β3/α2δ; 7 μM, listed as lin-taurine): -1.9 ± 2.5 mV; ICa I/I0 (Cav1.2/β3/α2δ; 7 μM): 0.6 ± 0.1 (p=0.01); ICa I/I0 (Cav1.2/β3/α2δ; 7 μM, listed as lin-taurine): 0.6 ± 0.1; shift of the voltage dependence of activation (Cav1.2/β3/α2δ; 0.2-20 μM): without shifting the voltage-dependence of Cav1.2/β3/α2δ activation; Gmax/Gmax0 (Nav1.5/β1; 2 μM): 0.9 ± 0.05; ΔV0.5 (voltage dependence of inactivation) (Nav1.5/β1; 2 μM): -8.8 ± 1.7 mV; INa I/I0 (Nav1.5/β1; 2 μM): 0.6 ± 0.07; Gmax/Gmax0 (Nav1.5/β1; 7 μM): 0.5 ± 0.07; ΔV0.5 (voltage dependence of inactivation) (Nav1.5/β1; 7 μM): −23.5 ± 1.9 mV; ΔV0.5 (voltage dependence of inactivation) (Nav1.5/β1; 7 μM, listed as lin-taurine): -23.5 ± 1.9 mV; INa I/I0 (Nav1.5/β1; 7 μM): 0.1 ± 0.02 (p=0.0001); INa I/I0 (Nav1.5/β1; 7 μM, listed as lin-taurine): 0.1 ± 0.02; Gmax/Gmax0 (Nav1.5/β1; 20 μM): 0.3 ± 0.04; ΔV0.5 (voltage dependence of inactivation) (Nav1.5/β1; 20 μM): -34.9 ± 1.5 mV; INa I/I0 (Nav1.5/β1; 20 μM): 0.1 ± 0.01; shift of the voltage dependence of activation (Nav1.5/β1; 0.2-20 μM): no shift in the voltage dependence of activation
